Test results from US10442778B2, “N1-phenylpropane-1,2-diamine compounds with selective activity in voltage-gated sodium channels” (Merck Sharp & Dohme Corp., priority 2016, dated 2019).

Columns and labels:
[1] = biological target: T1, human Nav1.7 channels stably expressed in HEK 293 cells (Homo sapiens, UniProt Q15858); experiment: IonWorks Quattro automated patch-clamp, inactivated state block of Nav1.7; assay type: cell-based; details: double-pulse protocol, read-out: potency for the Nav 1.7 sodium ion channel (as measured by IonWorks)
T1 construct: expressed in transfected cells; host or cells: HEK 293
T1 sequence (Q15858 whole entry): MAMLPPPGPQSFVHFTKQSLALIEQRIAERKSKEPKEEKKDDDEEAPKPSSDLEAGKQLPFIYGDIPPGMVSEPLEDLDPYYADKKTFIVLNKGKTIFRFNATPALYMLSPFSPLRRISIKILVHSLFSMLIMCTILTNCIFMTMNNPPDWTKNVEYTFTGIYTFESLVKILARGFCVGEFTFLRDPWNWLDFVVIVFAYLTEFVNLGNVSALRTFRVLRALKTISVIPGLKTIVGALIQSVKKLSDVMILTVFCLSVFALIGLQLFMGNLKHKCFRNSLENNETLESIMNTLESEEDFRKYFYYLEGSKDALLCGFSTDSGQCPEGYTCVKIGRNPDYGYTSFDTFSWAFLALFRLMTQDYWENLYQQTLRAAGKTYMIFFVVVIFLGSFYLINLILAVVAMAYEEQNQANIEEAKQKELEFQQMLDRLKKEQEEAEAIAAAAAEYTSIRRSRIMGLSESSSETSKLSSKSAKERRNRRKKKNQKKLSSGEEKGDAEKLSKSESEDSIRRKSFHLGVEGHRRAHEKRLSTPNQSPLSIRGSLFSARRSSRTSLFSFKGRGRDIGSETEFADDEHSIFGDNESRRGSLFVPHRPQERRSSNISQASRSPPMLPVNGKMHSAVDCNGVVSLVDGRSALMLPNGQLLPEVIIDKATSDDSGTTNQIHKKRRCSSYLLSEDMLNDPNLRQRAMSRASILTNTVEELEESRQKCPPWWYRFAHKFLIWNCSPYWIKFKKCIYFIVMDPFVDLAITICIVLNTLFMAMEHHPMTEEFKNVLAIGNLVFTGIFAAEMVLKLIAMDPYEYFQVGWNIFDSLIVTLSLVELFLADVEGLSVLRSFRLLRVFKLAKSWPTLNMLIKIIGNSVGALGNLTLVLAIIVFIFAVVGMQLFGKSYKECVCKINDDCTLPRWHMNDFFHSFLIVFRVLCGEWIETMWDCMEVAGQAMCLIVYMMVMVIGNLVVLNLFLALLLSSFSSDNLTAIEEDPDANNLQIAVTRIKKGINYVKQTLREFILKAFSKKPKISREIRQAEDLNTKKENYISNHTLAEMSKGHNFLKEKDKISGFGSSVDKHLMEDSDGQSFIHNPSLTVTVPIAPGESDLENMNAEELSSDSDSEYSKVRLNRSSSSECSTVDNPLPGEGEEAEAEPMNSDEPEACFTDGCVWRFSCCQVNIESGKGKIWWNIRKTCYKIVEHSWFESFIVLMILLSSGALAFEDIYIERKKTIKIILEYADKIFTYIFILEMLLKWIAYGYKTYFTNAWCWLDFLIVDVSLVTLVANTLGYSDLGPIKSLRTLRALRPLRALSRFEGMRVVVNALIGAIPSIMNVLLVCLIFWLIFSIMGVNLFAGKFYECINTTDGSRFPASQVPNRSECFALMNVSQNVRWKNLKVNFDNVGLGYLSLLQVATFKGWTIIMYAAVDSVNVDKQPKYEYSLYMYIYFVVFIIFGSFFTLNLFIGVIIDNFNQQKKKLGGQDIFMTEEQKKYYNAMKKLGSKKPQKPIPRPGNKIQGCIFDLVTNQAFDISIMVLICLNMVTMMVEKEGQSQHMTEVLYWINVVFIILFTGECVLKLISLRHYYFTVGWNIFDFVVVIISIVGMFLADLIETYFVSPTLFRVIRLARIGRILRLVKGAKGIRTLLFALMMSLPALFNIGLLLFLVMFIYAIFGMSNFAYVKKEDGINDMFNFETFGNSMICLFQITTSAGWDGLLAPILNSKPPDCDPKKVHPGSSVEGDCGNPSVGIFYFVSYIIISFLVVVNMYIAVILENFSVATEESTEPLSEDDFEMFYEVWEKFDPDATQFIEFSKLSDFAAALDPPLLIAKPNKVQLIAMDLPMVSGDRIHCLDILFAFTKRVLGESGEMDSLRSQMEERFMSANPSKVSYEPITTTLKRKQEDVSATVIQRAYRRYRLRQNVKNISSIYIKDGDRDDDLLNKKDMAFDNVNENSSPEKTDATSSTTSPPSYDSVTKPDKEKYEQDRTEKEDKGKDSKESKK
Protocol: (§1) Compounds were tested on human Nav1.7 and Nav1.5 channels stably expressed in HEK 293 cells. […] Cells were sealed on a planar substrate using the Population Patch Plate (PPC) technology. Electrical access was obtained using both nystatin and amphotericin. A double-pulse protocol was used for the determination of IC50 values for inactivated state block. Nav1.7 and Nav1.5 expressing cells were voltage clamped at −100 mV and −110 mV, respectively. A depolarizing prepulse to −10 mV (Nav1.7) or −30 mV (Nav1.5) for 1000 ms followed by a 10 ms repolarization to −100 mV (Nav1.7) or −110 mV (Nav1.5) was given to generate fractional channel inactivation of ˜50%, followed by a 10 ms test pulse to −10 mV (Nav1.7) or −30 mV (Nav1.5) to measure peak current in control conditions and after compound addition. The following recording solutions were used (mM). External: 150 NaCl, 2 CaCl2, 5 KCl, 1 Mg Cl2, 10 HEPES, 12 Dextrose; internal: 120 CsF, 30 CsCl, 10 EGTA, 5 HEPES, 5 NaF, 2 MgCl2.
(§2) For all electrophysiology experiments, offline analysis was used to determine percent inhibition as a function of drug concentration. IC50 values were determined by fitting to the Hill equation.

[2] = biological target: T2, human Nav1.5 channels stably expressed in HEK 293 cells (Homo sapiens, UniProt Q14524); experiment: IonWorks Quattro automated patch-clamp, inactivated state block of Nav1.5 (selectivity); assay type: cell-based; details: IonWorks measurement, both channels in HEK 293 cells
T2 construct: expressed in transfected cells; host or cells: HEK 293
T2 sequence (Q14524 whole entry): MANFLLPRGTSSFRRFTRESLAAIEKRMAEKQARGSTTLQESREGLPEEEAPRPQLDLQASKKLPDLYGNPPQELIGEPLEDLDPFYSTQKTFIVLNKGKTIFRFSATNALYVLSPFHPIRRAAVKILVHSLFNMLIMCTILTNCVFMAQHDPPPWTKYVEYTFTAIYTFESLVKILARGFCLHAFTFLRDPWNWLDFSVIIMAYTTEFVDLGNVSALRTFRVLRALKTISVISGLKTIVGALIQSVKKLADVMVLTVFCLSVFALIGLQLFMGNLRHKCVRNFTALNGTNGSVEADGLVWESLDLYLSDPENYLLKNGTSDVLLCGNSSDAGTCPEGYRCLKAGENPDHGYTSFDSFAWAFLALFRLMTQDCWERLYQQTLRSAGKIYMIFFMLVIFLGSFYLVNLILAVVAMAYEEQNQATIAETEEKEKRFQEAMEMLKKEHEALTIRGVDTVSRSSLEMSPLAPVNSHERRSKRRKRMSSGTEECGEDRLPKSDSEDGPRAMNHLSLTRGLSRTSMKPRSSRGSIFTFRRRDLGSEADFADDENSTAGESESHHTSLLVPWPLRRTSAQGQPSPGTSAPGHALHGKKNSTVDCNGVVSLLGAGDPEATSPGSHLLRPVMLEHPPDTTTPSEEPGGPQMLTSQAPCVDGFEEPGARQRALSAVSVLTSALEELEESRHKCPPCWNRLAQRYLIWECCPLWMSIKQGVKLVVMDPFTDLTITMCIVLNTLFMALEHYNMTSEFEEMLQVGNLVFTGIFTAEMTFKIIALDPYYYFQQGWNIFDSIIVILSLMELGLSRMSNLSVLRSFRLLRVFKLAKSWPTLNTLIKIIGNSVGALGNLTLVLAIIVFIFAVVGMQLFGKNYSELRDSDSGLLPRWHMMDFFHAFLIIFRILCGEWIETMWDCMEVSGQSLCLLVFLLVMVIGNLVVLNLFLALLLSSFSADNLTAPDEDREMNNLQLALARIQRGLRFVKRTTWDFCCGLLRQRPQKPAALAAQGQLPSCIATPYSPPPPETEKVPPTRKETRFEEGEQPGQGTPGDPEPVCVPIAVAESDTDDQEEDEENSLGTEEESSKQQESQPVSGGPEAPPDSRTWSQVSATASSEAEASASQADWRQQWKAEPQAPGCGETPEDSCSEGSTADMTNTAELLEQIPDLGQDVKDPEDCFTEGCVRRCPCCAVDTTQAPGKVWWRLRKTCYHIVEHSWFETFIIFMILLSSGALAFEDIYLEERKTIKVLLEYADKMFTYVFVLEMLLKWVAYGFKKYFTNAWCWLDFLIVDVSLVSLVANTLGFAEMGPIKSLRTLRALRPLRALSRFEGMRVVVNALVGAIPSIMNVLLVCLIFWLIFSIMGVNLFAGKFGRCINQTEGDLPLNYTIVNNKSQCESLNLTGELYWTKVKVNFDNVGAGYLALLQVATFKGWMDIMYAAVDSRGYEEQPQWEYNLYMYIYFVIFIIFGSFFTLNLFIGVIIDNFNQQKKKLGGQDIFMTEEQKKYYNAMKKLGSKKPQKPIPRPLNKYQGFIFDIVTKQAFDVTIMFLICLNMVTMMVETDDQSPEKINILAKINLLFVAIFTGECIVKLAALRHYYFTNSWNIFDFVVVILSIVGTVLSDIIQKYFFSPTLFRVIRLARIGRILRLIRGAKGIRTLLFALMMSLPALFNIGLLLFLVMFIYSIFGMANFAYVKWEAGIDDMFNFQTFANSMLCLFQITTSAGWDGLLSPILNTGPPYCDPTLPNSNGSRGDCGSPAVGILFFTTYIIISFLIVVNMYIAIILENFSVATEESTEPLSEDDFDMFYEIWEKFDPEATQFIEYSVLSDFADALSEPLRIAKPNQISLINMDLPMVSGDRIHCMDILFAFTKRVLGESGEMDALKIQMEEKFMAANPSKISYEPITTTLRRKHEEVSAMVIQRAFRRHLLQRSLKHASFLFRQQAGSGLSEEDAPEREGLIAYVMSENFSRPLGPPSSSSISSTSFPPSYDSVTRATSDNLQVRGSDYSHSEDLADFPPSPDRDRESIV
Protocol: as §1, §2

SMILES	IC50 [1] [µM]	ratio of Nav1.7 potency:Nav 1.5 potency [2]
CN[C@H](CNc1cc(F)c(S(=O)(=O)Nc2ncc(F)s2)cc1Cl)CC1CC1 [Ex2-18, (S)-5-chloro-4-((3-cyclopropyl-2-(methylamino)propyl)amino)-2-fluoro-N-(5-fluorothiazol-2-yl)-benzenesulfonamide]	0.85	> 39
CN[C@@H](CCC1CC1)CNc1cc(F)c(S(=O)(=O)Nc2ncc(F)s2)cc1Cl [Ex2-19, (S)-5-chloro-4-((4-cyclopropyl-2-(methylamino)butyl)amino)-2-fluoro-N-(5-fluorothiazol-2-yl)-benzenesulfonamide]	0.8	> 41
CN[C@H](CNc1cc(F)c(S(=O)(=O)Nc2ncc(F)s2)cc1Cl)CC1CC1(C)C (stereo partly drawn) [Ex2-20, 5-chloro-4-(((2S)-3-(2,2-dimethylcyclopropyl)-2-(methylamino)propyl)amino)-2-fluoro-N-(5-fluorothiazol-2-yl)-benzenesulfonamide]	0.068	> 485
CN[C@H](CNc1cc(F)c(S(=O)(=O)Nc2ncc(F)s2)cc1Cl)CC1CC1(F)F (stereo partly drawn) [Ex2-22, 5-chloro-4-(((2S)-3-(2,2-difluorocyclopropyl)-2-(methylamino)propyl)amino)-2-fluoro-N-(5-fluorothiazol-2-yl)-benzenesulfonamide]	1	> 23
CN[C@@H](CCC1(C)CC1)CNc1cc(F)c(S(=O)(=O)Nc2ncc(F)s2)cc1Cl [Ex2-23, (S)-5-chloro-2-fluoro-N-(5-fluorothiazol-2-yl)-4-((2-(methylamino)-4-(1-methylcyclopropyl)butyl)amino)benzenesulfonamide]	0.012	> 2750
CN[C@@H](CCC1CCC1)CNc1cc(F)c(S(=O)(=O)Nc2ncc(F)s2)cc1Cl [Ex3-13, (S)-5-chloro-4-((4-cyclobutyl-2-(methylamino)butyl)amino)-2-fluoro-N-(5-fluorothiazol-2-yl)-benzenesulfonamide]	0.3	> 110
CN(C)[C@H](CNc1cc(F)c(S(=O)(=O)Nc2ncc(F)s2)cc1Cl)C[Si](C)(C)C [Ex7-2, (R)-5-chloro-4-((2-(dimethylamino)-3-(trimethylsilyl)propyl)-amino)-2-fluoro-N-(5-fluorothiazol-2-yl)benzenesulfonamide]	0.018	> 889
CCN[C@H](CNc1cc(F)c(S(=O)(=O)Nc2ncc(F)s2)cc1Cl)C[Si](C)(C)C [Ex7-4, (R)-5-chloro-4-((2-(ethylamino)-3-(trimethylsilyl)propyl)amino)-2-fluoro-N-(5-fluorothiazol-2-yl)benzenesulfonamide]	0.003	> 11000

More lines, main results first:

IC50 [1] [µM]	SMILES	ratio of Nav1.7 potency:Nav 1.5 potency [2]
0.064	[2H]C([2H])([2H])N[C@H](CNc1cc(F)c(S(=O)(=O)Nc2ncc(F)s2)cc1Cl)CC(C)(C)C [Ex3-14, (S)-5-chloro-4-((4,4-dimethyl-2-((methyl-d3)amino)pentyl)amino)-2-fluoro-N-(5-fluorothiazol-2-yl)-benzenesulfonamide]	> 429
0.64	CN[C@H](CNc1cc(F)c(S(=O)(=O)Nc2ncc(F)s2)cc1C#N)CC(C)(C)C [Ex4-3, (S)-5-cyano-4-((4,4-dimethyl-2-(methylamino)pentyl)amino)-2-fluoro-N-(5-fluorothiazol-2-yl)benzenesulfonamide]	> 52
0.34	CN[C@H](CNc1cc(F)c(S(=O)(=O)Nc2ncc(F)s2)cc1Cl)CC1(C)CC1 [Ex6-10, (S)-5-chloro-2-fluoro-N-(5-fluorothiazol-2-yl)-4-((2-(methylamino)-3-(1-methylcyclopropyl)propyl)amino)benzenesulfonamide]	> 68
0.041	CCCC[C@@H](CNc1cc(F)c(S(=O)(=O)Nc2ncc(F)s2)cc1Cl)NCCC [Ex7-5, (S)-5-chloro-2-fluoro-N-(5-fluorothiazol-2-yl)-4-((2-(propylainino)hexyl)amino) benzenesulfonamide]	> 805
0.03	CCCC[C@@H](CNc1cc(F)c(S(=O)(=O)Nc2ncc(F)s2)cc1Cl)NC(C)C [Ex7-6, (S)-5-chloro-2-fluoro-N-(5-fluorothiazol-2-yl)-4-((2-(isopropylamino)hexyl)amino) benzenesulfonamide]	> 533
